“Also recorded” adds a separate entry of the source. Marks after values point to notes of the source that are not given here.
Columns and labels:
IL-1β = details: human whole blood, TPA-induced; cited from earlier work
[1] = system: Rat carrageenan paw edema; details: PO, once; cited from earlier work
MEK = details: read-out: MEK Enzyme IC50; cited from earlier work
~200 other kinases = ~200 other kinases at 1 μM; cited from earlier work
25 receptors = details: cited from earlier work
[2] = system: Rat Collagen-Induced Arthritis; details: PO, QD×7; cited from earlier work
[3] = system: Cytochrome p450 (5 major isoforms); details: read-out: Cytochrome p450 Inhibition-IC50; cited from earlier work
TNF-α = details: human whole blood, TPA-induced; cited from earlier work
Malme-3M pERK = details: Malme-3M cells; cited from earlier work
[4] = system: rat adjuvant-induced arthritis; details: PO, QD×7; cited from earlier work
IL-6 = details: human whole blood, TPA-induced; cited from earlier work
Fmr1 KO mouse = test: Audiogenic seizures (AGS) in Fmr1 KO and WT mice;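 as to all read-outs here: male WT and Fmr1 KO littermates aged P17-25 given a 2 min seizure-provoking stimulus, scored blind to genotype for wild running, clonic and tonic seizures and death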; details: for AGS incidence: 1 h, vehicle KO about 74%; for incidence of AGS: Example 1, vehicle KO 73%; for incidence of AGS / Clonic seizure incidence / Death incidence / Tonic seizure incidence / WR (wild running) incidence: i.p. 100 mg/kg SL 327 or 30 mg/kg Formula I; for Clonic seizure incidence / Death incidence / Tonic seizure incidence / WR (wild running) incidence: 1 h before stimulus
Description: One hour later, mice were exposed to a seizure-inducing stimulus for 2 minutes, and scored for four stages of AGS: wild running (WR; pronounced, undirected running and thrashing), clonic seizure (violent spasms accompanied by loss of balance), tonic seizure (postural rigidity in limbs), and death [35, 37, 39]. All animals were injected and scored blind to genotype.
AGS: Experiments were performed using male WT and Fmr1 KO littermates (P17-25) as described herein. […] Immediately prior to testing, mice were transferred to a quiet (about <60 dB ambient sound) room for 1 hour. Mice were then transferred to a transparent plastic test chamber and, after 1 minute of habituation, exposed to a 130 dB stimulus (recorded sampling of a modified personal alarm, RADIOSHACK model 49-1010) for about 2 minutes. Each testing session contained mice from both genotype and treatment groups. For each group, incidence of the following stages of AGS was calculated: wild running (WR; pronounced, undirected running and thRashing), clonic seizure (violent spasms accompanied by loss of balance), tonic seizure (postural rigidity in limbs), and death. All aspects of the experiments were performed blind to genotype.
For each mouse, four stages of increasing AGS severity were scored: wild running, clonic seizure, tonic seizure, or death[16].

[5] = system: protein synthesis in WT and Fmr1 KO hippocampal slices; test: Protein synthesis in hippocampal slices (35S-Met/Cys metabolic labeling); format: cell-based, mouse
Description: Dorsal hippocampal slices were prepared from juvenile (postnatal day 25-32) WT and Fmr1 KO mice using the same metabolic labeling procedure described in [35]. Briefly, 500 μm slices were recovered in carbogenating, 32.5° C. ACSF (in mM: NaCl: 124, KCl: 3, NaH2PO4: 1.25, NaHCO3: 26, dextrose: 10, MgCl2: 1, CaCl2: 2, saturated with 95% O2 and 5% CO2), pre-incubated in actinomycin D (ActD, 25 μM) for 30 min to prevent transcription, and protein synthesis measured over 30 minutes via incorporation of a ^35S-labeled methionine/cysteine mix (^35S-Met/Cys).
Group I mGluR activate several signal pathways.
Mice: Fmr1 KO (Jackson Labs) and WT littermates, bred on the C57BL6 or FVB background strains, were group housed and maintained in a 12:12 h light:dark cycle. An In vitro hippocampal slice assay was used herein to recapitulate the exaggerated protein synthesis phenotype seen in the Fmr1 KO[6].
Metabolic labeling: Experiments were performed on male WT and Fmr1 KO mice (postnatal day 25-32), blind to genotype, as described herein. Briefly, 500 μm slices were recovered for 4 h in 32.5° C. […] After labeling, slices were homogenized, and labeled proteins isolated by TCA precipitation. Samples were read with a scintillation counter and also subjected to a protein concentration assay (BIO-RAD). Final data were expressed as counts per minute (CPM) per μg protein, normalized to the ^35S-Met/Cys ACSF used for incubation, and the average incorporation of all samples analyzed in that experiment.

Ras = Ras activation assay (Ras-GTP pull-down) in hippocampal slices; format: cell-based, mouse
Description: Ras activation assay: Slices (4-6 per animal) were prepared exactly as for metabolic labeling, and Ras-GTP isolated using the Active Ras Pull-Down and Detection kit (PIERCE) according to manufacturer's instructions.
Active (GTP-bound) Ras was isolated from homogenized slices using a GST-pull down assay, and compared to total Ras.

ERK1/2 = ERK1/2 activation (phosphorylation) in hippocampal slices, immunoblotting; format: cell-based, mouse; details: for ERK1/2 activation (phosphorylation; WT veh = 100%): 1 hour
[6] = Fmr1 KO mice, C57BL6, 30 mg/kg Formula I acid i.p.
[7] = Fmr1 KO hippocampal slices, 100 μM Formula I in lactone form (Example 1)
[8] = Fmr1 KO hippocampal slices, 100 μM Formula I in lactone form (Example 1), listed as LOVASTATIN
[9] = Fmr1 KO hippocampal slices, 10 μM Formula I
[10] = Fmr1 KO hippocampal slices, 50 μM Formula I
[11] = WT hippocampal slices, 10 μM Formula I
[12] = WT hippocampal slices, 50 μM Formula I
[13] = WT hippocampal slices, 5 μM U0126

Cn1cnc2c(F)c(Nc3ccc(Br)cc3F)c(C(=O)NOCCO)cc21 [ARRY-162]
IC50 (IL-1β): 21 nM | Rat carrageenan paw edema ED50 [1]: ~7 mg/kg | IC50 (MEK): 12 nM | Kinase selectivity screen (~200 other kinases): no activity | receptor screen (25 receptors): clean | Rat Collagen-Induced Arthritis ED50 [2]: 3 mg/kg | IC50 [3]: > 25000 nM | IC50 (TNF-α): 23 nM | IC50 (Malme-3M pERK): 11 nM | rat adjuvant-induced arthritis ED50 [4]: 10 mg/kg | IC50 (IL-6): 21 nM

CCC(C)C(=O)OC1CC(C)C=C2C=CC(C)C(CCC(O)CC(O)CC(=O)[O-])C21.[Na+] (stereo not drawn) [Formula I acid]
AGS severity (distribution of AGS scores) (Fmr1 KO mouse; [6]): attenuates AGS severity | AGS incidence (Fmr1 KO mouse; [6]): significantly reduces AGS incidence

CC[C@H](C)C(=O)O[C@H]1C[C@@H](C)C=C2C=C[C@H](C)[C@H](CC[C@@H]3C[C@@H](O)CC(=O)O3)[C@H]21 [Formula I, (1S,3R,7S,8S,8aR)-8-{2-[(2R,4R)-4-hydroxy-6-oxooxan-2-yl]ethyl}-3,7-dimethyl-1,2,3,7,8,8a-hexahydronaphthalen-1-yl-(2S)-2-methylbutanoate]
protein synthesis (WT veh = 100%) ([5]; Fmr1 KO hippocampal slices, 10 μM Formula I (acid form, Example 2)): 115±7% | protein synthesis (WT vehicle = 100%) [5, 7]: 104±2% | protein synthesis (WT vehicle = 100%) [5, 8]: can correct protein synthesis | protein synthesis (WT veh = 100%) ([5]; WT hippocampal slices, 10 μM Formula I (acid form, Example 2)): 103±4% | protein synthesis (WT veh = 100%) ([5]; WT hippocampal slices, 50 μM Formula I (acid form, Example 2)): 88±5% | active (GTP-bound) Ras compared to total Ras (WT veh = 100%) (Ras; [9]): 89±8% | active (GTP-bound) Ras compared to total Ras (WT veh = 100%) (Ras; [10]): 61±9% | active (GTP-bound) Ras compared to total Ras (WT veh = 100%) (Ras; [11]): 87±14% | active (GTP-bound) Ras compared to total Ras (WT veh = 100%) (Ras; [12]): 61±12% | Ras activation in hippocampal slices (in words) (Ras; hippocampal slices, Formula I acid form, FIGS. 2D and 2E): inhibits Ras activation | AGS severity (distribution of AGS scores) (Fmr1 KO mouse; [6]): significantly lessens the severity of seizures | AGS incidence (Fmr1 KO mouse; [6]): about 28% | AGS severity (distribution of AGS scores) (Fmr1 KO mouse; Fmr1 KO mice, C57BL6, 30 mg/kg Formula I lactone i.p.): significantly reduces AGS severity | AGS severity (distribution of AGS scores) (Fmr1 KO mouse; Fmr1 KO mice, C57BL6, 100 mg/kg Formula I acid i.p.): attenuates AGS severity | AGS severity (distribution of AGS scores) (Fmr1 KO mouse; Fmr1 KO mice, C57BL6, oral, 48 h feeding of 0.1% Formula I chow): significantly reduces AGS severity | incidence of AGS (Fmr1 KO mouse; Fmr1 KO mice): 21% | AGS severity (distribution of AGS scores) (Fmr1 KO mouse; Fmr1 KO mice, FVB, 30 mg/kg Formula I i.p., 30 mg/kg): similarly unaffected; also recorded: does not significantly reduce AGS severity | AGS severity (distribution of AGS scores) (Fmr1 KO mouse; Fmr1 KO mice, FVB, 100 mg/kg Formula I i.p., 100 mg/kg): significantly reduces AGS severity | Clonic seizure incidence (Fmr1 KO mouse; Fmr1 KO mice): 12%* | Death incidence (Fmr1 KO mouse; Fmr1 KO mice): 8% | Tonic seizure incidence (Fmr1 KO mouse; Fmr1 KO mice): 6%* | WR (wild running) incidence (Fmr1 KO mouse; Fmr1 KO mice): 21%* | Clonic seizure incidence (Fmr1 KO mouse; WT mice): 8%* | Death incidence (Fmr1 KO mouse; WT mice): 8% | Tonic seizure incidence (Fmr1 KO mouse; WT mice): 8% | WR (wild running) incidence (Fmr1 KO mouse; WT mice): 13%** | ERK1/2 activation (phosphorylation; WT veh = 100%) (ERK1/2; [9]): 90±6% | ERK1/2 activation (phosphorylation; WT veh = 100%) (ERK1/2; [10]): 78±5% | ERK1/2 activation (WT vehicle = 100%) (ERK1/2; [7]): 181±6% | ERK1/2 activation (WT vehicle = 100%) (ERK1/2; [8]): reduce ERK1/2 activation | ERK1/2 activation (phosphorylation; WT veh = 100%) (ERK1/2; [11]): 94±8% | ERK1/2 activation (phosphorylation; WT veh = 100%) (ERK1/2; [12]): 84±5% | ERK1/2 activation (WT vehicle = 100%) (ERK1/2; WT hippocampal slices, 100 μM Formula I in lactone form (Example 1)): 187±6% | ERK1/2 in hippocampal slices (in words) (ERK1/2; hippocampal slices, Formula I acid form, FIGS. 2F and 2G): downregulates ERK1/2

N#CC(=C(N)Sc1ccccc1N)C(C#N)=C(N)Sc1ccccc1N [Formula U0126, 1,4-diamino-2,3-dicyano-1,4-bis[2-aminophenylthio]butadiene]
protein synthesis (WT vehicle = 100%) [5, 13]: 94±6% | ERK1/2 activation (WT vehicle = 100%) (ERK1/2; [13]): 15±3%

Cc1cccc(C#Cc2ccccc2)n1 [MPEP]
protein synthesis (WT vehicle = 100%) ([5]; Fmr1 KO hippocampal slices, 50 μM MPEP, 5 minutes): 95±2% | protein synthesis (WT vehicle = 100%) ([5]; WT hippocampal slices, 50 μM MPEP, 5 minutes): 104±2%

N#C/C(=C(\N)Sc1ccc(N)cc1)c1ccccc1C(F)(F)F [SL 327, alpha-[amino[(4-aminophenyl)thio]methylene]-2-(trifluoromethyl)benzeneacetonitrile]
incidence of AGS (Fmr1 KO mouse; Fmr1 KO mice): 0% | Clonic seizure incidence (Fmr1 KO mouse; Fmr1 KO mice): 0%* | Death incidence (Fmr1 KO mouse; Fmr1 KO mice): 0% | Tonic seizure incidence (Fmr1 KO mouse; Fmr1 KO mice): 0%* | WR (wild running) incidence (Fmr1 KO mouse; Fmr1 KO mice): 0%* | Clonic seizure incidence (Fmr1 KO mouse; WT mice): 0%* | Death incidence (Fmr1 KO mouse; WT mice): 0% | Tonic seizure incidence (Fmr1 KO mouse; WT mice): 0% | WR (wild running) incidence (Fmr1 KO mouse; WT mice): 0%*
